This note sets out measurements from US20220213113A1, “NITROGEN-CONTAINING CONDENSED CYCLIC COMPOUNDS, FLUORESCENCE EMITTERS, ORGANIC ELECTROLUMINESCENT DEVICES, AND MATERIALS FOR ORGANIC ELECTROLUMINESCENT DEVICES” (Samsung Electronics Co., Ltd., priority 2020, published 2022).

≈ marks a conversion by molar mass, not a printed value.

A short description of this data set: Evaluation of solubility in mesitylene. The class given is physicochemical. The following applies: organic solvent or mixture, thermodynamic from solid; 10 mg compound in test tube, heated at 160° C., mesitylene added until completely dissolved. As for the experimental part:
10 mg of the obtained Compounds D1 to D9 and Comparative Compound C1 were each placed in a test tube, mesitylene was added thereto, and were heated at a temperature of 160° C. Mesitylene was added thereto until the compounds were completely dissolved and the solubility was calculated.
In the case of `Cc1cc(C)c(-c2ccc3c(c2)c2c4c5ccccc5n5c6ccc(-c7c(C)cc(C)cc7C)cc6c(c6c7ccccc7n3c62)c45)c(C)c1` [Compound D1], the solubility was 2000 µg/mL (≈ 3.12 mM).

For `CC(C)(C)c1ccc(-c2ccc3c(c2)c2c4c5ccccc5n5c6ccc(-c7ccc(C(C)(C)C)cc7)cc6c(c6c7ccccc7n3c62)c45)cc1` [Compound D2], the solubility stood at 1300 µg/mL (≈ 1.94 mM).

Regarding `CC(C)(C)c1ccc(-c2ccc3c4c5c6ccccc6n6c7cc(-c8ccc(C(C)(C)C)cc8)ccc7c(c7c8ccccc8n(c3c2)c74)c56)cc1` [Compound D3], the solubility stood at 1000 µg/mL (≈ 1.5 mM).

For `CC(C)(C)c1cc(-c2ccc3c4c5c6ccccc6n6c7cc(-c8cc(C(C)(C)C)cc(C(C)(C)C)c8)ccc7c(c7c8ccccc8n(c3c2)c74)c56)cc(C(C)(C)C)c1` [Compound D4], the solubility worked out at 3200 µg/mL (≈ 4.1 mM).

Turning to `CC(C)(C)c1cc(-c2ccc3c4c5c6ccc(C(C)(C)C)cc6n6c7cc(-c8cc(C(C)(C)C)cc(C(C)(C)C)c8)ccc7c(c7c8ccc(C(C)(C)C)cc8n(c3c2)c47)c56)cc(C(C)(C)C)c1` [Compound D5], the solubility was 10100 µg/mL (≈ 11.3 mM).

As for `CC(C)(C)c1cc(-c2ccc3c4c5c6cc(C(C)(C)C)ccc6n6c7cc(-c8cc(C(C)(C)C)cc(C(C)(C)C)c8)ccc7c(c7c8cc(C(C)(C)C)ccc8n(c3c2)c74)c56)cc(C(C)(C)C)c1` [Compound D6], the solubility is 1000 µg/mL (≈ 1.12 mM).

For `c1ccc(-c2cccc(-c3ccccc3)c2-c2ccc3c4c5c6ccccc6n6c7cc(-c8c(-c9ccccc9)cccc8-c8ccccc8)ccc7c(c7c8ccccc8n(c3c2)c74)c56)cc1` [Compound D7], the solubility is 3100 µg/mL (≈ 3.6 mM).

On to `CC(C)(C)c1cc(-c2cccc3c4c5c6ccccc6n6c7c(-c8cc(C(C)(C)C)cc(C(C)(C)C)c8)cccc7c(c7c8ccccc8n(c23)c74)c56)cc(C(C)(C)C)c1` [Compound D8], for which the solubility was found to be 10300 µg/mL (≈ 13.2 mM).

Regarding `CC(C)(C)c1cc(-c2ccc3c4c5c6cccc(-c7ccccc7)c6n6c7cc(-c8cc(C(C)(C)C)cc(C(C)(C)C)c8)ccc7c(c7c8cccc(-c9ccccc9)c8n(c3c2)c47)c56)cc(C(C)(C)C)c1` [Compound D9], the solubility worked out at 3000 µg/mL (≈ 3.21 mM).
